# Biological target: T1, ADRA1D (Homo sapiens, UniProt P25100)
# T1 construct: purchased Promega (in-house HiBiT-GPCR construct library, NanoBRET)
# T1 sequence (P25100 1-572): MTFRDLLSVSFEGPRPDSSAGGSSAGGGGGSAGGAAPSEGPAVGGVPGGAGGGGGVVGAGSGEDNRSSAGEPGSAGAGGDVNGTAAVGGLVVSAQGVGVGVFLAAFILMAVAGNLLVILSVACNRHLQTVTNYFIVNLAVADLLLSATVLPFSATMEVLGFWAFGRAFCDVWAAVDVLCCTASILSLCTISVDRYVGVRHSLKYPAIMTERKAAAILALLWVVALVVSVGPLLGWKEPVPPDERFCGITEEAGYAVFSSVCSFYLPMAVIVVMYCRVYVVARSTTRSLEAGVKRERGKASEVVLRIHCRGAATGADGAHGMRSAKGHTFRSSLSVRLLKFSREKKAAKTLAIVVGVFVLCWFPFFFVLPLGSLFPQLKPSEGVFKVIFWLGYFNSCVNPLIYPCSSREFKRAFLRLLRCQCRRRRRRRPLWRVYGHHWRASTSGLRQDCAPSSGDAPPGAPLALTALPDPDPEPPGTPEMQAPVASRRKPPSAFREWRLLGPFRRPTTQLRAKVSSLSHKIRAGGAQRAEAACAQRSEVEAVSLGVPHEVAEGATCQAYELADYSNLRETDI
# Assay: NanoBRET screen HiBiT-ADRA1D in HEK293
# Type: binding
# Experimental: Each tracer candidate was screened across the entire library of HiBiT-GPCR constructs using NanoBRET as the detection modality. As depicted in Figure 4A, the specificity of interactions was evaluated through decrease in BRET due to competitive displacement of a bound tracer by excess parental compound. Each tracer was analyzed for binding to each HiBiT-GPCR fusion in the absence and in the presence of competing parental compound. Briefly, HEK293 cells were transfected with HiBiT-GPCR constructs diluted into promoterless DNA to reduce expression and maximize translocation to the cell surface. Each tracer candidate was then screened at concentrations of 1 μM and 0.1 μM across cells expressing these fusions. Cells were treated for 1.5 h with tracer either alone or in the presence of 20 μM competing parental compound (i.e., control). BRET was measured upon addition of purified LgBiT and subsequent complementation with HiBiT genetically fused to a GPCR. The specificity of interactions was assessed through a decrease in BRET signal due to competitive displacement of the bound tracer. To further gauge the robustness of these interactions, the fold response over the control (i.e., BRETtracer/BRETcontrol) was calculated. We chose a 1.5-fold response, which translates to ≥7-fold signal over noise as the minimal threshold required to score an interaction as positive.
# HiBiT-GPCR DNA constructs were diluted in 10 mM Tris pH 8 to a final concentration of 0.01 μg/μL, arrayed in 96-well plates and stored at −20 °C. For transfection, HEK293 cells were suspended in Opti-MEM (without phenol red) supplemented with 2% fetal bovine serum (Seradigm) and 100 units/mL penicillin–streptomycin (Gibco) at a final concentration of 220,000 cells/mL and dispensed into white 96-well plates at 90 μL/well. Subsequent transfections and screens were carried using an Agilent Bravo Automated Liquid Handling Platform. First, the 96-well HiBiT DNA arrays were diluted 25-fold in Opti-MEM (without serum or phenol red) to a final concentration of 0.0004 μg/μL and 20 μL of the diluted DNAs were transferred into new 96-well plates. Next, promoterless carrier DNA (1 μg/μL) was diluted 25-fold (0.04 μg/μL) and then dispensed into the diluted arrays at 20 μL/well. Following brief mixing, Viafect transfection reagent (Promega) diluted 16-fold into Opti-MEM was dispensed into the plates at 40 μL/well. After mixing by pipetting, plates were incubated for 10 min on the pipetting station deck. The DNA-transfection reagent complexes were then added to plates containing cells. To facilitate the screen, 10 μL of DNA-transfection reagent complexes were added in duplicates to the top 4 and bottom 4 rows, resulting in two identical 48-well arrays per plate. Plates with transfected cells were incubated for 18–20 h at 37 °C/5% CO2. A screen of each tracer across the entire library using two different concentrations requires duplicate plates of transfected cells. Depending on the number of tracers being screened, transfections can be scaled up using the same ratios. The next day, for each tracer, four 20× screening solutions in tracer dilution buffer (Promega) were prepared: two duplicates at final concentration of 20 μM and two duplicates at a final concentration of 2 μM. […] The four resulting solutions were diluted 4-fold in Opti-MEM without serum or phenol red to generate 5× solutions (5 µM and 0.5 µM tracer +/− 100 μM competing compound). To screen the library, a BioTek MultiFlo FX liquid dispenser was used to dispense 22.5 µL of tracer solution to the top 4 rows and 22.5 µL tracer + competing compound solution to the 4 bottom rows. Plates were briefly mixed on an orbital shaker and incubated for 1.5 h at room temperature. […] Plates were briefly mixed on an orbital shaker and incubated for 15 min to allow complementation.
SMILES,"NanoBRET Fold Response (ADRA1D, tracer 0.1μM)","NanoBRET Fold Response (ADRA1D, tracer 1μM)",further results
CN(C)CCC=C1c2ccccc2CCc2ccc(C(=O)NCCNC(=O)CCOCCOCCOCCOCCNC(=O)CCc3ccc4n3[B-](F)(F)[N+]3=C(c5ccc[nH]5)C=CC3=C4)cc21 [Amitriptyline-b-2-NB590],,,"NanoBRET Fold Response (tracer at 0.1μM, listed as amitriptyline-b-2-NB590): 1.05; NanoBRET Fold Response (tracer at 1μM, listed as amitriptyline-b-2-NB590): 1.07"
CCOC(=O)c1cc(C#N)c(N2CCC(C(=O)NS(=O)(=O)Cc3ccccc3/C=C/C(=O)NCCNC(=O)CCc3ccc4n3[B-](F)(F)[N+]3=C(c5ccc[nH]5)C=CC3=C4)CC2)nc1C [AZD1283-1-NB590],,,"NanoBRET Fold Response (ADRA1D, 0.1μM): 1.02; NanoBRET Fold Response (ADRA1D, 1μM): 1.06"
CC(C)N(CC[C@H](c1ccccc1)c1cc(CCNC(=O)CCOCCOCCOCCOCCNC(=O)CCc2ccc3n2[B-](F)(F)[N+]2=C(c4ccc[nH]4)C=CC2=C3)ccc1O)C(C)C [Tolterodine-2-NB590],0.95,1.00,
CC(C)N(CC[C@H](c1ccccc1)c1cc(CCNC(=O)c2ccc(CNC(=O)CCc3ccc4n3[B-](F)(F)[N+]3=C(c5ccc[nH]5)C=CC3=C4)cc2)ccc1O)C(C)C [Tolterodine-BZ-NB590],1.15,1.05,
O=C(CCOCCOCCOCCOCCNC(=O)CCc1ccc2n1[B-](F)(F)[N+]1=C(c3ccc[nH]3)C=CC1=C2)NCCCN1CCN(C2=Nc3ccccc3Oc3ccc(Cl)cc32)CC1 [Loxapine-a-2-NB590],1.07,1.24,
CN(C)CCC=C1c2ccccc2CCc2ccc(C(=O)NCCNC(=O)CCOCCOCCOCCOCCNC(=O)CCc3ccc4n3[B-](F)(F)[N+]3=C(c5ccc[nH]5)C=CC3=C4)cc21 [Amitriptyline-a-2-NB590],,,NanoBRET Fold Response (tracer at 0.1μM): 1.08; NanoBRET Fold Response (tracer at 1μM): 1.11
Cc1nc2n(c(=O)c1CCN1CCC(c3noc4cc(F)ccc34)CC1)CCCC2OC(=O)NCCOCCOCCOCCOCCNC(=O)CCc1ccc2n1[B-](F)(F)[N+]1=C(c3ccc[nH]3)C=CC1=C2 (stereo not shown) [Risperidone-2-NB590],1.27,1.16,
COc1ccc2[nH]c(-c3ccc(CNC(=O)CCOCCOCCOCCOCCNC(=O)CCc4ccc5n4[B-](F)(F)[N+]4=C(c6ccc[nH]6)C=CC4=C5)cc3)c(CCNC(C)=O)c2n1 [AzomelatoninICO9-2-NB590],,,NanoBRET Fold Response (0.1μM tracer): 0.81; NanoBRET Fold Response (1μM tracer): 0.96
COc1ccccc1N1CCN(CCCCN2C(=O)c3ccc(CNC(=O)CCOCCOCCOCCOCCNC(=O)CCc4ccc5n4[B-](F)(F)[N+]4=C(c6ccc[nH]6)C=CC4=C5)cc3C2=O)CC1 [NAN-190-2-NB590],1.10,1.13,
O=C(CCc1ccc2n1[B-](F)(F)[N+]1=C(c3ccc[nH]3)C=CC1=C2)NCCOCCOCCNC(=O)OCCOCCN1CCN(C2=Nc3ccccc3Sc3ccccc32)CC1 [Quetiapine-a-2-NB590],1.13,1.06,
O=C(CCOCCOCCOCCOCCNC(=O)CCc1ccc2n1[B-](F)(F)[N+]1=C(c3ccc[nH]3)C=CC1=C2)NCCCN1CCN(C2=Nc3cc(Cl)ccc3Nc3ccccc32)CC1 [Clozapine-a-2-NB590],,,"NanoBRET Fold Response (ADRA1D, 0.1μM tracer): 1.21; NanoBRET Fold Response (ADRA1D, 1μM tracer): 1.08"
N#CN=C(NCCCOc1cccc(CN2CCCCC2)c1)NCCNC(=O)CCOCCOCCOCCOCCNC(=O)CCc1ccc2n1[B-](F)(F)[N+]1=C(c3ccc[nH]3)C=CC1=C2 [Aminopotentidine-2-NB590],0.97,,
O=C(CCc1ccc2n1[B-](F)(F)[N+]1=C(c3ccc[nH]3)C=CC1=C2)NCc1ccc(C(=O)NCCOCCOCCNCC(O)COc2cccc3ccccc23)cc1 (stereo not shown) [Propranolol-3-NB590],,,"NanoBRET Fold Response (ADRA1D, 0.1μM): 1.11; NanoBRET Fold Response (ADRA1D, 1μM): 1.09"
O=C(CCc1ccc2n1[B-](F)(F)[N+]1=C(c3ccc[nH]3)C=CC1=C2)NCc1ccc(C(=O)NCCOCCC(=O)N[C@@H]2CC[C@@]3(O)[C@H]4Cc5ccc(O)c6c5[C@@]3(CCN4CC3CC3)[C@H]2O6)cc1 [Naltrexone-3-NB590],1.36,1.31,
COc1ccccc1N1CCN(CCCCN2C(=O)c3ccc(CNC(=O)CCOCCNC(=O)c4ccc(CNC(=O)CCc5ccc6n5[B-](F)(F)[N+]5=C(c7ccc[nH]7)C=CC5=C6)cc4)cc3C2=O)CC1 [NAN-190-3-NB590],,1.16,
Cc1cc2c(s1)Nc1ccccc1N=C2N1CCN(CCCNC(=O)CCOCCOCCOCCOCCNC(=O)CCc2ccc3n2[B-](F)(F)[N+]2=C(c4ccc[nH]4)C=CC2=C3)CC1 [Olanzapine-a-2-NB590],,1.06,
CCCn1c(=O)c2[nH]c(-c3ccc(OCC(=O)NCCNC(=O)CCOCCNC(=O)c4ccc(CNC(=O)CCc5ccc6n5[B-](F)(F)[N+]5=C(c7ccc[nH]7)C=CC5=C6)cc4)cc3)nc2n(CCC)c1=O [XAC-3-NB590],1.02,1.10,
CN(CCC=C1c2ccccc2CCc2ccccc21)C(=O)CCOCCOCCOCCOCCNC(=O)CCc1ccc2n1[B-](F)(F)[N+]1=C(c3ccc[nH]3)C=CC1=C2 [Amitriptyline-e-2-NB590],,,NanoBRET Fold Response (tracer at 1μM): 1.07
COc1ccc2c(n1)c(CCNC(C)=O)cn2CCNC(=O)CCc1ccc2n1[B-](F)(F)[N+]1=C(c3ccc[nH]3)C=CC1=C2 [Azamelatonin-1-NB590],,,NanoBRET Fold Response (0.1μM tracer): 1.04; NanoBRET Fold Response (1μM tracer): 0.92

# Reference: publication PMC8151276, “An Integrated Approach toward NanoBRET Tracers for Analysis of GPCR Ligand Engagement” (Molecules, 2021)
